Data from patent US20240327430A1 (Breakpoint Therapeutics GmbH, priority 2023, published 2024).

These compounds were tested against truncated Polθ protein (Polθ-Hel containing the helicase domain (67-894)) (Homo sapiens (Human), UniProt O75417) (assay: Polθ ATPase assay (Biological Assay 1, ADP-Glo luminescence)). Settings: Table B; compounds of Experimental Part B, in vitro; read-out: Polθ ATPase assay IC50.
Format: biochemical
Method in brief: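 Polθ-Hel (0.5 nM) with 500 nM ssDNA oligo in pH 8.8 Tris buffer (5 mM MgCl2, 1 mM DTT) was preincubated with compound 30 min at 23 °C. The reaction ran 60 min after 60 μM ATP was added (stated as the added solution, not final). ADP formed was detected by ADP-Glo luminescence to derive IC50.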

Chain of truncated Polθ protein (Polθ-Hel containing the helicase domain (67-894)) (O75417 67-894): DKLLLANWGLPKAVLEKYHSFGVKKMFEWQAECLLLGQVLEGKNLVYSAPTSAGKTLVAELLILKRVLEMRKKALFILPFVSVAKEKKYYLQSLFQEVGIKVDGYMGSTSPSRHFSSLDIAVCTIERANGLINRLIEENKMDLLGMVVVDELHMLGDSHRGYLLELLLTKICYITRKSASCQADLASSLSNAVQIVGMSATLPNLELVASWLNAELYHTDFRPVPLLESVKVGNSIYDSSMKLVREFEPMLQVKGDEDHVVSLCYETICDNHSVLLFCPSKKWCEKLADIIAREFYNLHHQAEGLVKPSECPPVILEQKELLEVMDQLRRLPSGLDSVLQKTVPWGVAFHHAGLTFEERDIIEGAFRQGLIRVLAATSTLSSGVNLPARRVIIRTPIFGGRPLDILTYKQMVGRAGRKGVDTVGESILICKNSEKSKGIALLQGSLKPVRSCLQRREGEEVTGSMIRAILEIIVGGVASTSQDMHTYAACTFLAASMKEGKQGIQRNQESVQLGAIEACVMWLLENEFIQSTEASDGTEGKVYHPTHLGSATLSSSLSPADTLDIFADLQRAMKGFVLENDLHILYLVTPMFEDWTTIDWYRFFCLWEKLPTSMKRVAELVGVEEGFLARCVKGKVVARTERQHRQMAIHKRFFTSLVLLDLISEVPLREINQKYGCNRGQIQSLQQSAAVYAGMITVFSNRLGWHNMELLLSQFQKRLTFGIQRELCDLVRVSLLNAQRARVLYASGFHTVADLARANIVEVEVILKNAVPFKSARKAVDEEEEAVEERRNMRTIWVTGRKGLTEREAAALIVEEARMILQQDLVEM

IC50 [nM]	SMILES
< 100	COc1cnc(Cl)cc1-c1cc(C)ncc1C(=O)Nc1nc2ccc(NCCCCC(=O)O)nc2s1 [Example 120, 5-[(2-{2′-chloro-5′-methoxy-6-methyl-[4,4′-bipyridine]-3-amido}-[1,3]thiazolo[5,4-b]pyridin-5-yl)amino]pentanoic acid]
< 100	COc1cnc(Cl)cc1-c1cc(C)ncc1C(=O)Nc1nc2cc(OCc3nn[nH]n3)ccc2s1 [Example 121, 2′-chloro-5′-methoxy-6-methyl-N-{5-[(2H-1,2,3,4-tetrazol-5-yl)methoxy]-1,3-benzothiazol-2-yl}-[4,4′-bipyridine]-3-carboxamide]
< 100	COc1cnc(Cl)cc1-c1cc(C)ncc1C(=O)Nc1nc2cc(O)ccc2s1 [Example 122, 2′-chloro-N-(5-hydroxy-1,3-benzothiazol-2-yl)-5′-methoxy-6-methyl-[4,4′-bipyridine]-3-carboxamide]
< 100	COc1cnc(Cl)cc1-c1cc(C)ncc1C(=O)Nc1nc2cc(OCCOC(C)=O)ccc2s1 [Example 123, 2-[(2-{2′-chloro-5'-methoxy-6-methyl-[4,4′-bipyridine]-3-amido}-1,3-benzothiazol-5-yl)oxy]ethyl acetate]
< 100	COc1cnc(Cl)cc1-c1cc(C)ncc1C(=O)Nc1nc2cc(OCCO)ccc2s1 [Example 124, 2′-chloro-N-[5-(2-hydroxyethoxy)-1,3-benzothiazol-2-yl]-5′-methoxy-6-methyl-[4,4′-bipyridine]-3-carboxamide]
< 100	COc1cnc(Cl)cc1-c1cc(C)ncc1C(=O)Nc1nc2c(OCC#N)ncnc2s1 [Example 126, 2′-chloro-N-[7-(cyanomethoxy)-[1,3]thiazolo[5,4-d]pyrimidin-2-yl]-5′-methoxy-6-methyl-[4,4′-bipyridine]-3-carboxamide]
< 100	COc1cnc(Cl)cc1-c1cc(C)ncc1C(=O)Nc1nc2ccc(C3COCCN3)cc2s1 (stereo not drawn) [Example 128, 2′-chloro-5′-methoxy-6-methyl-N-[6-(morpholin-3-yl)-1,3-benzothiazol-2-yl]-[4,4′-bipyridine]-3-carboxamide]
< 100	COc1cnc(Cl)cc1-c1cc(C)ncc1C(=O)Nc1nc2cnc(NCC(C)(C)O)cc2s1 [Example 130, 2′-chloro-N-{6-[(2-hydroxy-2-methylpropyl)amino]-[1,3]thiazolo[4,5-c]pyridin-2-yl}-5′-methoxy-6-methyl-[4,4′-bipyridine]-3 carboxamide]
< 100	COc1cnc(Cl)cc1-c1cc(C)ncc1C(=O)Nc1nc2cnc(N3CC(C)(OC)C3)cc2s1 [Example 131, 2′-chloro-5′-methoxy-N-[6-(3-methoxy-3-methylazetidin-1-yl)-[1,3]thiazolo[4,5-c]pyridin-2-yl]-6-methyl-[4,4′-bipyridine]-3-carboxamide]
< 100	COc1cnc(Cl)cc1-c1cc(C)ncc1C(=O)Nc1nc2c(C)nc(N3CCC(O)CC3)nc2s1 [Example 132, 2′-chloro-N-[5-(4-hydroxypiperidin-1-yl)-7-methyl-[1,3]thiazolo[5,4-d]pyrimidin-2-yl]-5′-methoxy-6-methyl-[4,4′-bipyridine]-3-carboxamide]
< 100	COc1cnc(Cl)cc1-c1cc(C)ncc1C(=O)Nc1nc2cnc(OCC(C)(C)O)nc2s1 [Example 133, 2′-chloro-N-[5-(2-hydroxy-2-methylpropoxy)-[1,3]thiazolo[5,4-d]pyrimidin-2-yl]-5′-methoxy-6-methyl-[4,4′-bipyridine]-3-carboxamide]

SMILES	IC50 [nM]
COc1cnc(Cl)cc1-c1cc(C)ncc1C(=O)Nc1nc2c(OCC(N)=O)ncnc2s1 [Example 127, N-[7-(carbamoylmethoxy)-[1,3]thiazolo[5,4-d]pyrimidin-2-yl]-2′-chloro-5′-methoxy-6-methyl-[4.4′-bipyridine]-3-carboxamide]	< 100
